# Source: PubChem BioAssay (NCI)
#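 A five-concentration, 48-hour dose response in 96-well plates underlies each endpoint, interpolated linearly between surrounding concentrations. The concentration for 50% growth inhibition is given as GI50. TGI: total growth inhibition.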
# How the values were obtained:
# Assay in all cases: DTP human tumour cell line panel, 48 h
# 786-0 renal = tested on: 786-0 renal
# A498 renal = tested on: A498 renal
# A549 NSCLC = tested on: A549 NSCLC
# ACHN renal = tested on: ACHN renal
# BT-549 breast = tested on: BT-549 breast
# CAKI-1 renal = tested on: CAKI-1 renal
# CCRF-CEM leukemia = tested on: CCRF-CEM leukemia
# COLO 205 colon = tested on: COLO 205 colon
# DU-145 prostate = tested on: DU-145 prostate
# HCC-2998 colon = tested on: HCC-2998 colon
# HCT-116 colon = tested on: HCT-116 colon
# HCT-15 colon = tested on: HCT-15 colon
# HL-60(TB) leukemia = tested on: HL-60(TB) leukemia
# HOP-62 NSCLC = tested on: HOP-62 NSCLC
# HOP-92 NSCLC = tested on: HOP-92 NSCLC
# HS 578T breast = tested on: HS 578T breast
# HT29 colon = tested on: HT29 colon
# IGROV1 ovarian = tested on: IGROV1 ovarian
# K-562 leukemia = tested on: K-562 leukemia
# KM12 colon = tested on: KM12 colon
# LOX IMVI melanoma = tested on: LOX IMVI melanoma
# M14 melanoma = tested on: M14 melanoma
# MALME-3M melanoma = tested on: MALME-3M melanoma
# MCF7 breast = tested on: MCF7 breast
# MDA-MB-231 breast = tested on: MDA-MB-231 breast
# MDA-MB-435 = tested on: MDA-MB-435
# MOLT-4 leukemia = tested on: MOLT-4 leukemia
# NCI-H226 lung = tested on: NCI-H226 lung
# NCI-H23 lung = tested on: NCI-H23 lung
# NCI-H460 lung = tested on: NCI-H460 lung
# NCI-H522 lung = tested on: NCI-H522 lung
# NCI/ADR-RES ovarian = tested on: NCI/ADR-RES ovarian
# OVCAR-3 ovarian = tested on: OVCAR-3 ovarian
# OVCAR-4 ovarian = tested on: OVCAR-4 ovarian
# OVCAR-5 ovarian = tested on: OVCAR-5 ovarian
# OVCAR-8 ovarian = tested on: OVCAR-8 ovarian
# PC-3 prostate = tested on: PC-3 prostate
# RPMI-8226 leukemia = tested on: RPMI-8226 leukemia
# RXF 393 renal = tested on: RXF 393 renal
# SF-268 CNS = tested on: SF-268 CNS
# SF-295 CNS = tested on: SF-295 CNS
# SF-539 CNS = tested on: SF-539 CNS
# SK-MEL-2 melanoma = tested on: SK-MEL-2 melanoma
# SK-MEL-28 melanoma = tested on: SK-MEL-28 melanoma
# SK-MEL-5 melanoma = tested on: SK-MEL-5 melanoma
# SK-OV-3 ovarian = tested on: SK-OV-3 ovarian
# SN12C renal = tested on: SN12C renal
# SNB-19 CNS = tested on: SNB-19 CNS
# SNB-75 CNS = tested on: SNB-75 CNS
# SR leukemia = tested on: SR leukemia
# SW-620 colon = tested on: SW-620 colon
# T-47D breast = tested on: T-47D breast
# TK-10 renal = tested on: TK-10 renal
# U251 CNS = tested on: U251 CNS
# UACC-257 melanoma = tested on: UACC-257 melanoma
# UACC-62 melanoma = tested on: UACC-62 melanoma
# UO-31 renal = tested on: UO-31 renal
structure (smiles),measurement,setting,value
Cn1c(=O)c(Oc2ccc(F)cc2F)cc2cnc(NC3CCOCC3)nc21,GI50,786-0 renal,> 25 µM
same,TGI,786-0 renal,> 25 µM
same,GI50,A498 renal,5 µM
same,TGI,A498 renal,> 25 µM
same,GI50,A549 NSCLC,> 25 µM
same,TGI,A549 NSCLC,> 25 µM
same,GI50,ACHN renal,> 25 µM
same,TGI,ACHN renal,> 25 µM
same,GI50,BT-549 breast,> 25 µM
same,TGI,BT-549 breast,> 25 µM
same,GI50,CAKI-1 renal,> 25 µM
same,TGI,CAKI-1 renal,> 25 µM
same,GI50,CCRF-CEM leukemia,> 25 µM
same,TGI,CCRF-CEM leukemia,> 25 µM
same,GI50,COLO 205 colon,> 25 µM
same,TGI,COLO 205 colon,> 25 µM
same,GI50,DU-145 prostate,> 25 µM
same,TGI,DU-145 prostate,> 25 µM
same,GI50,HCC-2998 colon,> 25 µM
same,TGI,HCC-2998 colon,> 25 µM
same,GI50,HCT-116 colon,> 25 µM
same,TGI,HCT-116 colon,> 25 µM
same,GI50,HCT-15 colon,> 25 µM
same,TGI,HCT-15 colon,> 25 µM
same,GI50,HL-60(TB) leukemia,> 25 µM
same,TGI,HL-60(TB) leukemia,> 25 µM
same,GI50,HOP-62 NSCLC,> 25 µM
same,TGI,HOP-62 NSCLC,> 25 µM
same,GI50,HOP-92 NSCLC,601 nM
same,TGI,HOP-92 NSCLC,19.4 µM
same,GI50,HS 578T breast,> 14.3 µM
same,TGI,HS 578T breast,> 25 µM
same,GI50,HT29 colon,> 25 µM
same,TGI,HT29 colon,> 25 µM
same,GI50,IGROV1 ovarian,> 25 µM
same,TGI,IGROV1 ovarian,> 25 µM
same,GI50,K-562 leukemia,> 25 µM
same,TGI,K-562 leukemia,> 25 µM
same,GI50,KM12 colon,> 25 µM
same,TGI,KM12 colon,> 25 µM
same,GI50,LOX IMVI melanoma,> 25 µM
same,TGI,LOX IMVI melanoma,> 25 µM
same,GI50,M14 melanoma,> 25 µM
same,TGI,M14 melanoma,> 25 µM
same,GI50,MALME-3M melanoma,> 25 µM
same,TGI,MALME-3M melanoma,> 25 µM
same,GI50,MCF7 breast,> 25 µM
same,TGI,MCF7 breast,> 25 µM
same,GI50,MDA-MB-231 breast,> 25 µM
same,TGI,MDA-MB-231 breast,> 25 µM
same,GI50,MDA-MB-435,> 25 µM
same,TGI,MDA-MB-435,> 25 µM
same,GI50,MOLT-4 leukemia,> 25 µM
same,TGI,MOLT-4 leukemia,> 25 µM
same,GI50,NCI-H226 lung,> 25 µM
same,TGI,NCI-H226 lung,> 25 µM
same,GI50,NCI-H23 lung,> 25 µM
same,TGI,NCI-H23 lung,> 25 µM
same,GI50,NCI-H460 lung,> 25 µM
same,TGI,NCI-H460 lung,> 25 µM
same,GI50,NCI-H522 lung,> 25 µM
same,TGI,NCI-H522 lung,> 25 µM
same,GI50,NCI/ADR-RES ovarian,> 25 µM
same,TGI,NCI/ADR-RES ovarian,> 25 µM
same,GI50,OVCAR-3 ovarian,> 25 µM
same,TGI,OVCAR-3 ovarian,> 25 µM
same,GI50,OVCAR-4 ovarian,> 25 µM
same,TGI,OVCAR-4 ovarian,> 25 µM
same,GI50,OVCAR-5 ovarian,> 25 µM
same,TGI,OVCAR-5 ovarian,> 25 µM
same,GI50,OVCAR-8 ovarian,> 25 µM
same,TGI,OVCAR-8 ovarian,> 25 µM
same,GI50,PC-3 prostate,> 25 µM
same,TGI,PC-3 prostate,> 25 µM
same,GI50,RPMI-8226 leukemia,> 21.1 µM
same,TGI,RPMI-8226 leukemia,> 25 µM
same,GI50,RXF 393 renal,24.3 µM
same,TGI,RXF 393 renal,> 25 µM
same,GI50,SF-268 CNS,> 25 µM
same,TGI,SF-268 CNS,> 25 µM
same,GI50,SF-295 CNS,> 25 µM
same,TGI,SF-295 CNS,> 25 µM
same,GI50,SF-539 CNS,> 25 µM
same,TGI,SF-539 CNS,> 25 µM
same,GI50,SK-MEL-2 melanoma,> 25 µM
same,TGI,SK-MEL-2 melanoma,> 25 µM
same,GI50,SK-MEL-28 melanoma,> 25 µM
same,TGI,SK-MEL-28 melanoma,> 25 µM
same,GI50,SK-MEL-5 melanoma,> 25 µM
same,TGI,SK-MEL-5 melanoma,> 25 µM
same,GI50,SK-OV-3 ovarian,> 25 µM
same,TGI,SK-OV-3 ovarian,> 25 µM
same,GI50,SN12C renal,> 25 µM
same,TGI,SN12C renal,> 25 µM
same,GI50,SNB-19 CNS,> 25 µM
same,TGI,SNB-19 CNS,> 25 µM
same,GI50,SNB-75 CNS,> 15.5 µM
same,TGI,SNB-75 CNS,> 25 µM
same,GI50,SR leukemia,> 25 µM
same,TGI,SR leukemia,> 25 µM
same,GI50,SW-620 colon,> 25 µM
same,TGI,SW-620 colon,> 25 µM
same,GI50,T-47D breast,> 25 µM
same,TGI,T-47D breast,> 25 µM
same,GI50,TK-10 renal,18.6 µM
same,TGI,TK-10 renal,> 25 µM
same,GI50,U251 CNS,> 25 µM
same,TGI,U251 CNS,> 25 µM
same,GI50,UACC-257 melanoma,> 25 µM
same,TGI,UACC-257 melanoma,> 25 µM
same,GI50,UACC-62 melanoma,> 25 µM
same,TGI,UACC-62 melanoma,> 25 µM
same,GI50,UO-31 renal,8.06 µM
same,TGI,UO-31 renal,> 19.3 µM
